{"source": "PubChem BioAssay AID288", "about": "(DTP/NCI, 2004)", "test_system": "BDF1 mice, M5076 sarcoma s.c., survival/tumor T/C", "assay": "NCI In Vivo Anticancer Drug Screen. Data for tumor model Sarcoma M5076 (subcutaneous) in B6D2F1 (BDF1) mice", "procedure": "The antitumor activity of compounds was measured in mice bearing transplantable tumors. Survival or tumor size were measured and the results are expressed as the measurement made in the treated group (T) divided by the measurement made in the vehicle treated control group (C). The tumor model used in this assay is Sarcoma M5076 (subcutaneous) in B6D2F1 (BDF1) mice", "note": "“And” between values parts separate entries of the source, which are not always exact repeats. Identical values can stand only once. Results filed as inconclusive are left out."}
{"smiles": "C1CN1c1nc(N2CC2)nc(N2CC2)n1", "values": [{"measurement": "T/C", "setting": "endpoint: mean tumor weight, dose: 0.1 mg/kg/injection, schedule: Q02DX011 (ip), vehicle: Klucel (hydroxypropylcellulose) (HPC), higher = larger tumour", "value": "76 % of control"}, {"measurement": "T/C", "setting": "endpoint: mean tumor weight, dose: 0.2 mg/kg/injection, schedule: Q02DX011 (ip), vehicle: Klucel (hydroxypropylcellulose) (HPC), higher = larger tumour", "value": "25 % of control"}, {"measurement": "T/C", "setting": "endpoint: mean tumor weight, dose: 0.4 mg/kg/injection, schedule: Q02DX011 (ip), vehicle: Klucel (hydroxypropylcellulose) (HPC), higher = larger tumour", "value": "8 % of control"}, {"measurement": "T/C", "setting": "endpoint: median survival time, dose: 0.06 mg/kg/injection, schedule: Q02DX011 (ip), vehicle: saline, higher = longer survival", "value": "100 % of control"}, {"measurement": "T/C", "setting": "endpoint: median survival time, dose: 0.13 mg/kg/injection, schedule: Q02DX011 (ip), vehicle: saline, higher = longer survival", "value": "113 % of control"}, {"measurement": "T/C", "setting": "endpoint: median survival time, dose: 0.25 mg/kg/injection, schedule: Q02DX011 (ip), vehicle: saline, higher = longer survival", "value": "100 % of control"}, {"measurement": "T/C", "setting": "endpoint: median survival time, dose: 1.0 mg/kg/injection, schedule: Q02DX011 (ip), vehicle: saline, higher = longer survival", "value": "191 % of control"}]}
{"smiles": "Nc1nc(SCC(=O)O)[nH]c(=O)c1N", "values": [{"measurement": "T/C", "setting": "endpoint: median survival time, dose: 50.0 mg/kg/injection, schedule: Q01DX009 (ip), vehicle: saline with Tween-80, higher = longer survival", "value": "93 % of control"}, {"measurement": "T/C", "setting": "endpoint: median survival time, dose: 100.0 mg/kg/injection, schedule: Q01DX009 (ip), vehicle: saline with Tween-80, higher = longer survival", "value": "105 % of control"}, {"measurement": "T/C", "setting": "endpoint: median survival time, dose: 200.0 mg/kg/injection, schedule: Q01DX009 (ip), vehicle: saline with Tween-80, higher = longer survival", "value": "110 % of control"}]}
{"smiles": "CC(C)CC(NC(=O)C(N)C(C)C)C(=O)NC(CCCCN)C(=O)NC(C(=O)O)C1CC(Cl)=NO1", "note": "(configuration not stated)", "values": [{"measurement": "T/C", "setting": "endpoint: median survival time, dose: 1.6 mg/kg/injection, schedule: Q01DX010 (ip), vehicle: saline, higher = longer survival", "value": "103 % of control and 106 % of control"}, {"measurement": "T/C", "setting": "endpoint: median survival time, dose: 25.6 mg/kg/injection, schedule: Q01DX010 (ip), vehicle: saline, higher = longer survival", "value": "173 % of control"}, {"measurement": "T/C", "setting": "endpoint: median survival time, dose: 51.2 mg/kg/injection, schedule: Q01DX010 (ip), vehicle: saline, higher = longer survival", "value": "166 % of control"}]}
{"smiles": "O=c1[nH]cc(F)c(=O)[nH]1", "values": [{"measurement": "T/C", "setting": "endpoint: median survival time, dose: 6.25 mg/kg/injection, schedule: Q04DX006 (ip), vehicle: saline, higher = longer survival", "value": "105 % of control"}, {"measurement": "T/C", "setting": "endpoint: median survival time, dose: 12.5 mg/kg/injection, schedule: Q02DX033 (ip), vehicle: saline, higher = longer survival", "value": "101 % of control"}, {"measurement": "T/C", "setting": "endpoint: median survival time, dose: 12.5 mg/kg/injection, schedule: Q04DX006 (ip), vehicle: saline, higher = longer survival", "value": "100 % of control"}, {"measurement": "T/C", "setting": "endpoint: median survival time, dose: 25.0 mg/kg/injection, schedule: Q02DX033 (ip), vehicle: saline, higher = longer survival", "value": "105 % of control"}, {"measurement": "T/C", "setting": "endpoint: median survival time, dose: 25.0 mg/kg/injection, schedule: Q04DX006 (ip), vehicle: saline, higher = longer survival", "value": "108 % of control"}, {"measurement": "T/C", "setting": "endpoint: median survival time, dose: 50.0 mg/kg/injection, schedule: Q04DX006 (ip), vehicle: saline, higher = longer survival", "value": "105 % of control"}]}
{"smiles": "O=NN(CCCl)C(=O)NC1CCCCC1", "values": [{"measurement": "T/C", "setting": "endpoint: median survival time, dose: 2.0 mg/kg/injection, schedule: Q04DX006 (ip), vehicle: saline with Tween-80, higher = longer survival", "value": "117 % of control"}, {"measurement": "T/C", "setting": "endpoint: median survival time, dose: 3.0 mg/kg/injection, schedule: Q01DX009 (ip), vehicle: Klucel (hydroxypropylcellulose) (HPC), higher = longer survival", "value": "168 % of control"}, {"measurement": "T/C", "setting": "endpoint: median survival time, dose: 4.0 mg/kg/injection, schedule: Q02DX033 (ip), vehicle: saline with Tween-80, higher = longer survival", "value": "250 % of control"}, {"measurement": "T/C", "setting": "endpoint: median survival time, dose: 4.0 mg/kg/injection, schedule: Q04DX006 (ip), vehicle: saline with Tween-80, higher = longer survival", "value": "120 % of control"}, {"measurement": "T/C", "setting": "endpoint: median survival time, dose: 6.0 mg/kg/injection, schedule: Q01DX009 (ip), vehicle: Klucel (hydroxypropylcellulose) (HPC), higher = longer survival", "value": "215 % of control"}, {"measurement": "T/C", "setting": "endpoint: median survival time, dose: 8.0 mg/kg/injection, schedule: Q02DX033 (ip), vehicle: saline with Tween-80, higher = longer survival", "value": "255 % of control"}, {"measurement": "T/C", "setting": "endpoint: median survival time, dose: 8.0 mg/kg/injection, schedule: Q04DX006 (ip), vehicle: saline with Tween-80, higher = longer survival", "value": "183 % of control"}, {"measurement": "T/C", "setting": "endpoint: median survival time, dose: 12.0 mg/kg/injection, schedule: Q01DX009 (ip), vehicle: Klucel (hydroxypropylcellulose) (HPC), higher = longer survival", "value": "215 % of control"}, {"measurement": "T/C", "setting": "endpoint: median survival time, dose: 16.0 mg/kg/injection, schedule: Q04DX006 (ip), vehicle: saline with Tween-80, higher = longer survival", "value": "241 % of control"}, {"measurement": "T/C", "setting": "endpoint: median tumor weight (est.), dose: 1.5 mg/kg/injection, schedule: Q01DX009 (ip), vehicle: Klucel (hydroxypropylcellulose) (HPC), higher = larger tumour", "value": "10 % of control"}]}
{"smiles": "CN(C)/N=N/c1nc[nH]c1C(N)=O", "values": [{"measurement": "T/C", "setting": "endpoint: median survival time, dose: 13.5 mg/kg/injection, schedule: Q04DX006 (ip), vehicle: saline with Tween-80, higher = longer survival", "value": "96 % of control"}, {"measurement": "T/C", "setting": "endpoint: median survival time, dose: 27.0 mg/kg/injection, schedule: Q02DX030 (ip), vehicle: saline with Tween-80, higher = longer survival", "value": "177 % of control"}, {"measurement": "T/C", "setting": "endpoint: median survival time, dose: 27.0 mg/kg/injection, schedule: Q04DX006 (ip), vehicle: saline with Tween-80, higher = longer survival", "value": "122 % of control"}, {"measurement": "T/C", "setting": "endpoint: median survival time, dose: 54.0 mg/kg/injection, schedule: Q02DX030 (ip), vehicle: saline with Tween-80, higher = longer survival", "value": "191 % of control"}]}
{"smiles": "CO[C@H](C(=O)[C@@H](O)[C@@H](C)O)[C@@H]1Cc2cc3cc(OC4CC(OC5CC(O)C(O)C(C)O5)C(O)C(C)O4)c(C)c(O)c3c(O)c2C(=O)[C@H]1OC1CC(OC2CC(OC3CC(C)(O)C(O)C(C)O3)C(O)C(C)O2)C(O)C(C)O1", "note": "(some centres not stated)", "values": [{"measurement": "T/C", "setting": "endpoint: mean tumor weight, dose: 1.25 micrograms/kg/injection, schedule: Q02DX011 (ip), vehicle: water, higher = larger tumour", "value": "151 % of control"}, {"measurement": "T/C", "setting": "endpoint: mean tumor weight, dose: 5.0 micrograms/kg/injection, schedule: Q02DX011 (ip), vehicle: water, higher = larger tumour", "value": "168 % of control"}, {"measurement": "T/C", "setting": "endpoint: median tumor weight (est.), dose: 0.01 mg/kg/injection, schedule: Q02DX011 (ip), vehicle: water, higher = larger tumour", "value": "99 % of control"}, {"measurement": "T/C", "setting": "endpoint: median tumor weight (est.), dose: 0.05 mg/kg/injection, schedule: Q02DX011 (ip), vehicle: water, higher = larger tumour", "value": "154 % of control"}]}
